Results as given in US8404709B2, “Substituted 4-aryl-1,4-dihydro-1,6-naphthyridines and use thereof” (Bayer Intellectual Property GmbH, priority 2007, dated 2013).

Target: T1, human mineralocorticoid receptor (MR) (Homo sapiens, UniProt P08235)
T1 construct: expressed in transfected cells; host or cells: CHO K1
T1 sequence (P08235 734-984 limits assumed): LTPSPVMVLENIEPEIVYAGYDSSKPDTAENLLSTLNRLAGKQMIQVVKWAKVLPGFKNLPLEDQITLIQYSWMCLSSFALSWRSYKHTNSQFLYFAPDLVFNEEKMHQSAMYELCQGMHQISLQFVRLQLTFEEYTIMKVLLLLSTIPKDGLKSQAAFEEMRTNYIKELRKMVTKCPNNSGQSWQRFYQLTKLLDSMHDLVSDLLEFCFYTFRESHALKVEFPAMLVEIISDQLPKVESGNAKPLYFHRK
Assay: Cellular in vitro assay to determine the inhibitory MR activity (GAL4-MR chimera, luciferase reporter, CHO K1 cells)
Type: cell-based
Conditions: recombinant CHO K1 cells, GAL4-MR ligand-binding domain chimera, agonist aldosterone, luciferase readout
Text: 1. Cellular In Vitro Assay to Determine the Inhibitory MR Activity and MR Selectivity Compared with other Steroid Hormone Receptors
Antagonists of the human mineralocorticoid receptor (MR) are identified, and the activity of the compounds described herein is quantified with the aid of a recombinant cell line. The cell is originally derived from a hamster ovary epithelial cell (Chinese Hamster Ovary, CHO K1, ATCC: American Type Culture Collection, VA 20108, USA).
An established chimera system in which the ligand-binding domains of human steroid hormone receptors are fused to the DNA-binding domain of the yeast transcription factor GAL4 is used in this CHO K1 cell line. The GAL4-steroid hormone receptor chimeras produced in this way are cotransfected and stably expressed with a reporter construct in the CHO cells.
To generate the GAL4-steroid hormone receptor chimeras, the GAL4 DNA binding domain (amino acids 1-147) from the vector pFC2-dbd (from Stratagene) is cloned with the PCR-amplified ligand-binding domains of the mineralocorticoid receptor (MR, amino acids 734-985), of the glucocorticoid receptor (GR, amino acids 443-777), of the progesterone receptor (PR, amino acids 680-933) and of the androgen receptor (AR, amino acids 667-919) into the vector pIRES2 (from Clontech). The reporter construct, which comprises five copies of the GAL4 binding site upstream of a thymidine kinase promoter, leads to expression of firefly-luciferase (Photinus pyralis) after activation and binding of the GAL4-steroid hormone receptor chimeras by the respective specific agonists aldosterone (MR), dexamethasone (GR), progesterone (PR) and dihydrotestosterone (AR).
The MR, GR, PR and AR cells are plated out in medium (Optimem, 2.5% FCS, 2 mM glutamine, 10 mM HEPES) in 96- (or 384- or 1536-) well microtiter plates on the day before the assay and are kept in a cell incubator (96% humidity, 5% v/v CO2, 37° C.). On the day of the assay, the substances to be tested are taken up in the abovementioned medium and added to the cells. About 10 to 30 minutes after addition of the test substances, the respective specific agonists of the steroid hormone receptors are added. After a further incubation time of 5 to 6 hours, the luciferase activity is measured with the aid of a video camera. The measured relative light units as a function of the substance concentration result in a sigmoidal stimulation curve. The IC50 values are calculated with the aid of the GraphPad PRISM computer program (Version 3.02).

How did the IC50 turn out when CCOc1nccc2c1C(c1ccc(C#N)cc1OC)C(C#N)=C(C(F)(F)F)N2 (stereo not drawn) [Example 33, 4-(4-Cyano-2-methoxyphenyl)-5-ethoxy-2-(trifluoromethyl)-1,4-dihydro-1,6-naphthyridine-3-carbonitrile] was run?
The IC50 was 35 nM.

For CCOc1nccc2c1C(c1ccc(C#N)cc1OC(F)(F)F)C(C(C)=O)=C(C)N2 (stereo not drawn) [Example 21, 4-(3-Acetyl-5-ethoxy-2-methyl-1,4-dihydro-1,6-naphthyridin-4-yl)-3-(trifluoromethoxy)benzonitrile], which IC50 is on record?
The IC50 was 30 nM.

For CCOc1nccc2c1C(c1ccc(C#N)cc1OC)C(C#N)=C(C)N2 (stereo not drawn) [Example 25, 4-(4-Cyano-2-methoxyphenyl)-5-ethoxy-2-methyl-1,4-dihydro-1,6-naphthyridine-3-carbonitrile], which IC50 is on record?
Its IC50 is 87 nM.

Which IC50 does the source give for CCS(=O)(=O)Oc1nccc2c1C(c1cccc3c(=O)cc(C)oc13)C(C(C)=O)=C(C)N2 (stereo not drawn) [Example 10, 3-Acetyl-2-methyl-4-(2-methyl-4-oxo-4H-chromen-8-yl)-1,4-dihydro-1,6-naphthyridin-5-yl ethane-sulfonate] here?
The IC50 was 75 nM.

How did the IC50 turn out when CCOc1nc(C)cc2c1C(c1ccc(C#N)cc1OC)C(C#N)=C(C)N2 (stereo not drawn) [Example 35, 4-(4-Cyano-2-methoxyphenyl)-5-ethoxy-2,7-dimethyl-1,4-dihydro-1,6-naphthyridine-3-carbonitrile] was run?
The IC50 was 122 nM.

For CCOc1nccc2c1C(c1ccc(C#N)c3ccccc13)C(C(C)=O)=C(C)N2 (stereo not drawn) [Example 32, 4-(3-Acetyl-5-ethoxy-2-methyl-1,4-dihydro-1,6-naphthyridin-4-yl)-1-naphthonitrile], which IC50 is on record?
The IC50 was 4 nM.

With CCOc1nccc2c1C(c1ccc(C#N)cc1CC)C(C(C)=O)=C(C)N2 (stereo not drawn) [Example 24, 4-(3-Acetyl-5-ethoxy-2-methyl-1,4-dihydro-1,6-naphthyridin-4-yl)-3-ethylbenzonitrile] as the molecule, how does the IC50 read?
Its IC50 is 31 nM.

Which IC50 does the source give for CCOc1ncc(C)c2c1C(c1ccc(C#N)cc1OC)C(C#N)=C(C)N2 (stereo not drawn) [Example 37, 4-(4-Cyano-2-methoxyphenyl)-5-ethoxy-2,8-dimethyl-1,4-dihydro-1,6-naphthyridine-3-carbonitrile] here?
The IC50 was 73 nM.

Which IC50 does the source give for CCOc1nccc2c1C(c1cccc3c(=O)cc(C)oc13)C(C#N)=C(C)N2 (stereo not drawn) [Example 4, 5-Ethoxy-2-methyl-4-(2-methyl-4-oxo-4H-chromen-8-yl)-1,4-dihydro-1,6-naphthyridine-3-carbo-nitrite] here?
The IC50 was 273 nM.
